Our source for the IC50 and inhibition values is ChEMBL document CHEMBL5137086, “Discovery of 1-(Hetero)aryl-β-carboline Derivatives as IDO1/TDO Dual Inhibitors with Antidepressant Activity” (J Med Chem, 2022).

pIC50: −log10 of the molar value.

As usually defined, the pIC50 is −log10 of the IC50, conventionally taken in molar units. The term inhibition denotes the relative decrease from the control value, in per cent.

The target in experiment [1] is T1, Indoleamine 2,3-dioxygenase 1 (Homo sapiens, UniProt P14902). The experiment can be described thus: Inhibition of IDO1 (unknown origin) assessed as reduction in kynurenine production using L-tryptophan as substrate incubated for 1 hr by absorbance based microplate reader analysis.
Target sequence in this assay (P14902 whole entry): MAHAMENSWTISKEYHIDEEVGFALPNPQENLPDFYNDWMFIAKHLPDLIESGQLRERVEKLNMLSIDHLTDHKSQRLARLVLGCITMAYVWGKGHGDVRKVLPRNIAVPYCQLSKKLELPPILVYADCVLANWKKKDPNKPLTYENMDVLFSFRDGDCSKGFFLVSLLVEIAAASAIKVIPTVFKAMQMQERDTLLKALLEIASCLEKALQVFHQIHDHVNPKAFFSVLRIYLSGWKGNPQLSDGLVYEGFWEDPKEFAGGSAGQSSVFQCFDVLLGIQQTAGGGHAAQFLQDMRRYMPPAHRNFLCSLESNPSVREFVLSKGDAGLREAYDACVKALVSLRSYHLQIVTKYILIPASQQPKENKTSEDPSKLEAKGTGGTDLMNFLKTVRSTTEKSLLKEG
For experiment [2], the target named is T2, Tryptophan 2,3-dioxygenase (Homo sapiens, UniProt P48775). In words: Inhibition of TDO (unknown origin) assessed as reduction in N-formylkynurenine formation using L-tryptophan as substrate at 50 uM incubated for 75 mins by UV absorbance based analysis relative to control.
Target sequence in this assay (P48775 whole entry, looked up): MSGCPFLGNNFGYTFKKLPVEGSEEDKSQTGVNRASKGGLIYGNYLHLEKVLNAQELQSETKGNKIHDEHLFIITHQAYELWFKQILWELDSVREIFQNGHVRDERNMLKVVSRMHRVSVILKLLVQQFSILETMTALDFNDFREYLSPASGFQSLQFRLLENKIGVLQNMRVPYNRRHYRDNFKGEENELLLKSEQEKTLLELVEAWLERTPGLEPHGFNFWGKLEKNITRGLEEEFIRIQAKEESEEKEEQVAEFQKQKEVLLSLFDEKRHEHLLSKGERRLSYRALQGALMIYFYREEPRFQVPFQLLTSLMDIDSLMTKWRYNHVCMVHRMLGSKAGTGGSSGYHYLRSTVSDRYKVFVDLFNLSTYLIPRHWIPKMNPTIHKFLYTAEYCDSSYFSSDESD
The target in experiment [3] is T1, Indoleamine 2,3-dioxygenase 1. The experiment can be described thus: Inhibition of IDO1 (unknown origin) assessed as reduction in kynurenine production using L-tryptophan as substrate at 50 uM incubated for 1 hr by absorbance based microplate reader analysis relative to control.
Target sequence in this assay (P14902 whole entry, looked up): as the sequence (P14902 whole entry) above
Experiment [4] addresses T2, Tryptophan 2,3-dioxygenase. In words: Inhibition of TDO (unknown origin) assessed as reduction in N-formylkynurenine formation using L-tryptophan as substrate incubated for 75 mins by UV absorbance based analysis.
Target sequence in this assay (P48775 whole entry): as the sequence (P48775 whole entry, looked up) above

On to `Clc1ccc(-c2nccc3c2[nH]c2ccccc23)cc1`, for which the negative-log IC50 (pIC50) in experiment [1] is 5.12; in experiment [4] it was 5.08. Moreover, the inhibition was determined as 81% in experiment [2] and 86% in experiment [3].
In the case of `c1ccc2c(c1)[nH]c1c(-c3ncc[nH]3)nccc12`, the inhibition in experiment [2] came to 4%; in experiment [3] it was 26%.
For `Brc1cccc(-c2nccc3c2[nH]c2ccccc23)c1`, the pIC50 in experiment [1] was 5.31; in experiment [4] it was 4.69. Also, the inhibition in experiment [2] turned out to be 65%; in experiment [3] it was 93%.
The corresponding values for `Clc1cccc(-c2nccc3c2[nH]c2ccccc23)c1` are < 4.30, 4.87, 88% and 55%.
As for `c1ccc2c(c1)[nH]c1c(-c3nccs3)nccc12`, the inhibition in experiment [2] was 2%; in experiment [3], 5%.
Consider `O=C1CC(c2c[nH]c3ccc(F)cc23)C(=O)N1` (stereo unspecified), for which the inhibition in experiment [3] was found to be 92%.
As to `c1cncc(-c2nccc3c2[nH]c2ccccc23)c1`, the inhibition in experiment [2] stood at 89%; in experiment [3], 26%. Also, the negative-log IC50 (pIC50) in experiment [4] was 5.67.
As to `Brc1ccc(-c2nccc3c2[nH]c2ccccc23)cc1`, the pIC50 in experiment [1] is < 4.30. Besides, the inhibition in experiment [2] was 5%; in experiment [3], 51%.
The matching figures for `Fc1cc(-c2nccc3c2[nH]c2ccccc23)ccc1Br`: 4.49, 4% and 71%.
With `c1ccc2c(c1)[nH]c1c(-c3ccsc3)nccc12`, the inhibition in experiment [2] amounted to 94%; in experiment [3] it was 34%. The pIC50 in experiment [4] is 6.09.
With `Clc1cc(Cl)cc(-c2nccc3c2[nH]c2ccccc23)c1`, in experiment [1], the pIC50 was 4.78. Besides, the inhibition in experiment [2] came to 8%; in experiment [3] it was 75%.
With `c1ccc2c(c1)[nH]c1c(-c3ccoc3)nccc12`, the results for the inhibition in experiment [2] and in experiment [3] were 92% and 5%, respectively. Also, the pIC50 in experiment [4] is 5.94.
Take `Fc1cccc(-c2nccc3c2[nH]c2ccccc23)c1`: the inhibition is 86% in experiment [2] and 28% in experiment [3]. Besides, the pIC50 in experiment [4] was 4.96.
As for `N#Cc1ccc(-c2nccc3c2[nH]c2ccccc23)cc1`, the figures for the pIC50 in experiment [1] and in experiment [4] were < 4.30 and 4.92, respectively. In addition, the inhibition was 75% in experiment [2] and 53% in experiment [3].
For the compound `c1ccc2c(c1)[nH]c1c(-c3cc[nH]n3)nccc12`, the inhibition in experiment [2] came out at 7%; in experiment [3] it was 34%.
Regarding `Cc1nccc2c1[nH]c1ccccc12` [HARMAN], the inhibition was 85% in experiment [2] and 34% in experiment [3]. In addition, the pIC50 in experiment [4] was 5.20.
Consider `N#Cc1cccc(-c2nccc3c2[nH]c2ccccc23)c1`, for which the pIC50 in experiment [1] is < 4.30; in experiment [4] it was 4.81. In addition, the figures for the inhibition in experiment [2] and in experiment [3] were 78% and 66%, respectively.
The matching figures for `c1csc(-c2nccc3c2[nH]c2ccccc23)c1`: < 4.30, 4.96, 82% and 61%.
Regarding `c1coc(-c2nccc3c2[nH]c2ccccc23)c1`, the results for the inhibition in experiment [2] and in experiment [3] were 37% and 33%, respectively.
With `O=[N+]([O-])c1ccc(-c2nccc3c2[nH]c2ccccc23)cc1`, the pIC50 in experiment [1] was 5.07. Besides, the inhibition in experiment [2] came to 3%; in experiment [3] it was 94%.
With `c1ccc2c(c1)[nH]c1cnccc12` [NORHARMANE], the inhibition is 86% in experiment [2] and 48% in experiment [3]. The pIC50 in experiment [4] was 5.92.
The corresponding values for `c1ccc(-c2nccc3c2[nH]c2ccccc23)cc1` are 86%, 7% and 5.14.
As for `c1ccc2c(c1)[nH]c1c(-c3ccncc3)nccc12`, the inhibition was 36% in experiment [2] and 46% in experiment [3].
The matching figures for `Oc1ccc(-c2nccc3c2[nH]c2ccccc23)cc1`: 4% and 24%.
The matching figures for `FC(F)(F)c1ccc(-c2nccc3c2[nH]c2ccccc23)cc1`: 5% and 13%.
Consider `O=[N+]([O-])c1cccc(-c2nccc3c2[nH]c2ccccc23)c1`, for which the pIC50 in experiment [1] was 5.08. Moreover, the inhibition in experiment [2] came out at 6%; in experiment [3], 96%.
Take `c1ccc2c(c1)[nH]c1c(-c3cscn3)nccc12`: the inhibition was found to be 4% in experiment [2] and 3% in experiment [3].
Consider `c1ccc2c(c1)[nH]c1c(-c3cnn[nH]3)nccc12`, for which the pIC50 in experiment [1] is 4.86; in experiment [4] it was 4.71. Moreover, the inhibition in experiment [2] was found to be 77%; in experiment [3], 91%.
For `FC(F)(F)c1cccc(-c2nccc3c2[nH]c2ccccc23)c1`, the inhibition in experiment [2] was 88%; in experiment [3], 9%. For the same compound, the pIC50 in experiment [4] was 5.27.
On to `Fc1ccc(-c2nccc3c2[nH]c2ccccc23)cc1`, for which the inhibition in experiment [2] was 3%; in experiment [3], 27%.
